Data taken from article PMC9841525, “Chemical Blockage of the Mitochondrial Rhomboid Protease PARL by Novel Ketoamide Inhibitors Reveals Its Role in PINK1/Parkin-Dependent Mitophagy” (Journal of Medicinal Chemistry, 2022).
One block for each compound: values may come before it. *1 amine or outer side, *2 acyl side, *3 side chain or, on linkers, in order; H or OH if unused. Where a SMILES comes first, the peptide text is derived from it. [ ]: non-standard residue; d: D form. The star is where a group is joined. X2 = O=C(C(=O)[*:2])[C@H](Cc1ccccc1)N[*:1]; NH(4-phenylbutyl) = c1ccc(CCCCN*)cc1; X1 = C[C@H](N[*:1])C(=O)C(=O)[*:2]; AMC = Cc1cc(=O)oc2cc(N*)ccc12

Columns and labels:
[1] = target: T1, PARL (Homo sapiens, UniProt Q9H300); test: In vitro assay for PARL activity, cleavage of AMC substrates by liposome-embedded PARL; format: biochemical; set-up: hexahistidine tag (C); made in house; host or cells: continuous-exchange cell-free expression in bacterial lysates with T7 polymerase (CUBE biotech), into liposomes; conditions: mature PARL in liposomes, S277A catalytic mutant as control
T1 sequence (Q9H300 53-379): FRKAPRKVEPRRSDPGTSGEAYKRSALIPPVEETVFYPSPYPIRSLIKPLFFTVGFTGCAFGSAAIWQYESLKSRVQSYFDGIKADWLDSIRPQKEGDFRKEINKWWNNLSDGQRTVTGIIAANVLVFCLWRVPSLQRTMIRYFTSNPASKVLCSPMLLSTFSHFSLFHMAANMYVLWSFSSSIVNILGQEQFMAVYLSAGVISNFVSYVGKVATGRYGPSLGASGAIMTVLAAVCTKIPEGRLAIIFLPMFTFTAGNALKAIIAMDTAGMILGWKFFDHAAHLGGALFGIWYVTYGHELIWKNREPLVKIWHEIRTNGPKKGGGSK
Description: Liposome preparation and cell-free protein expression of PARL were carried out essentially as described previously.[27] Liposomes resembling the lipid composition of the IMM were prepared by mixing 40% DOPC (1,2-dioleoyl-sn-glycero-3-phosphocholine), 33.8% DOPE (1,2-dioleoyl-sn-glycero-3-phosphoethanolamine), 18% CL(18:1)4 (1′,3′-bis[1,2-dioleyl-sn-glycero-3-phospho]-glycerol), 3% DOPS (1,2-dioleoyl-sn-glycero-3-phospho-L-serine), 5% soy-PI (L-α-phosphatidylinositol), and 0.2% rhodamine-PE (1,2-dioleoyl-sn-glycero-3-phosphoethanolamine-N-(lissamine rhodamine B sulfonyl)) in chloroform, followed by the evaporation of chloroform by a stream of nitrogen gas and drying in a vacuum chamber (Binder) for 1 h. […] Concentration of PARL was determined by absorption at 280 nm.
The PARL activity assay in vitro was carried out in 5 mM Tris, 5 mM Mg(OAc)2, 25 μM Zn(OAc)2, 0.1 μg/μL BSA, 30% DMSO, pH 8.0 using PARL in liposomes at 0.05 mg/mL. Compound 3 and 4 were used at 5 μM final concentration based on quantitative amino acid analysis. […] The cleavage reaction was carried out at 37 °C in 96-well black HTS plates (Greiner Bio-One) in a plate reader (Tecan Infinite M1000) with excitation and emission wavelengths set to 355 and 450 nm, respectively. Data were evaluated using Excel (Microsoft) and GraphPad Prism 9 (GraphPad Software, Inc.).

[2] = target: T1, PARL; test: PARL inhibition assay in cells: cleavage of overexpressed PGAM5-Myc by tetracycline-induced PARL-FLAG, immunoblot; format: cell-based; set-up: expressed in transfected cells; host or cells: Flp-In HEK293 T-REx PARL knockout cells; conditions: Flp-In HEK293 T-REx PARL KO cells with inducible PARL-FLAG, PGAM5-Myc, mean ± SEM of four or three experiments; read-out: Apparent IC50, PGAM5 cleavage by overexpressed PARL
Description: PARL inhibition assays in cells were carried out in Flp-In HEK293 T-REx PARL knockout cells stably transfected with tetracycline inducible PARL-FLAG grown in DMEM (Gibco) supplemented with 10% (v/v) tetracycline-free fetal bovine serum (Clontech). For the inhibition assay, 0.7 × 10^6 cells were seeded per well of a 6-well plate, and the next day transfected with 5 μg of human PGAM5-Myc in pcDNA and 15 μg of branched polyethylenimine (Polysciences) per well. Four hours after transfection, the PARL expression was induced by adding tetracycline to 1 μg/mL. Eight hours after transfection, the inhibitors were added to each well in different concentrations in serum-free DMEM with 1% DMSO.
For immunoblot analysis of the effects of PARL inhibitors on PGAM5 cleavage, after overnight incubation with inhibitors, cells from each well were harvested in 1× SDS sample buffer containing 20 mM MgCl2 and Pierce universal nuclease (250 U/mL, Thermo Scientific) and heated to 65 °C for 10 min. Loading volumes for SDS-PAGE were adjusted by measuring total protein concentration in the lysates with Pierce 660 nm Protein Assay Reagent and Ionic Detergent Compatibility Reagent for Pierce 660 nm Protein Assay Reagent (Thermo Scientific). Samples were resolved by SDS-PAGE using a 12% polyacrylamide gel (Biorad) and electrotransferred onto an Immobilon PVDF membrane (Merck Millipore). Blots were blocked using casein blocker (Thermo Scientific) and hPGAM5 was labeled by rabbit anti-Myc antibody (Cell Signaling Technology, cat. #2278, dilution 1:1000) at 4 °C overnight. Blots were washed three times with TBS-T and incubated with IRDye 800 CW donkey anti-rabbit antibody (Invitrogen, cat. #SA5-10044, dilution 1:10,000) at room temperature for 2 h. Membranes were then again washed three times with TBS-T and one time with TBS. Fluorescence emission at […] of dried membranes was scanned on Odyssey CLx (LI-COR). Cleavage efficiency and inhibition were analyzed as described[23] using Image Studio Lite (LI-COR), Excel (Microsoft) and GraphPad Prism 9 (GraphPad Software, Inc.).

[3] = target: T1, PARL; test: PARL inhibition in vitro, PARL in liposomes with substrate compound 4; format: biochemical; set-up: hexahistidine tag (C); made in house; host or cells: continuous-exchange cell-free expression in bacterial lysates with T7 polymerase (CUBE biotech), into liposomes; conditions: recombinant mature PARL in liposomes, 100 μM substrate compound 4, mean ± SEM of three or four measurements
Description: Liposome preparation and cell-free protein expression of PARL were carried out essentially as described previously.[27] Liposomes resembling the lipid composition of the IMM were prepared by mixing 40% DOPC (1,2-dioleoyl-sn-glycero-3-phosphocholine), 33.8% DOPE (1,2-dioleoyl-sn-glycero-3-phosphoethanolamine), 18% CL(18:1)4 (1′,3′-bis[1,2-dioleyl-sn-glycero-3-phospho]-glycerol), 3% DOPS (1,2-dioleoyl-sn-glycero-3-phospho-L-serine), 5% soy-PI (L-α-phosphatidylinositol), and 0.2% rhodamine-PE (1,2-dioleoyl-sn-glycero-3-phosphoethanolamine-N-(lissamine rhodamine B sulfonyl)) in chloroform, followed by the evaporation of chloroform by a stream of nitrogen gas and drying in a vacuum chamber (Binder) for 1 h. Dried lipids were dissolved in buffer (5 mM Tris/HCl, pH 8.5, 10 mM KOAc) and extruded 21 times through a mini extruder (Avanti Polar Lipids) using a polycarbonate membrane with a pore size of […]. […] The PARL-containing liposomes were purified by a step-wise sucrose step-gradient centrifugation (0, 15, 30, and 40% sucrose in 5 mM HEPES pH 7.5 with 25 mM NaCl) for 2 h at 200,000 × g. Soluble proteoliposomes were harvested at the 0%/15% sucrose interface after the centrifugation. Concentration of PARL was determined by absorption at 280 nm.
PARL inhibition in vitro was measured in 5 mM Tris, 5 mM Mg(OAc)2, 25 μM Zn(OAc)2, 0.1 μg/μL BSA, 10% DMSO, pH 8.0 using PARL in liposomes at 0.07 mg/mL and compound 4 at 100 μM final concentration. Inhibitor concentrations were determined by quantitative amino acid analysis. Inhibitors in DMSO were dissolved at the respective concentrations into the reaction buffer by vigorous mixing at 1000 rpm, 37 °C for 40 min and then pre-incubated with PARL in liposomes at 37° for 1 h. The cleavage reaction was started by adding compound 4 and carried out at 37 °C in 96-well black HTS plates (Greiner Bio-One). Fluorescence was read in a plate reader (Tecan Infinite M1000) with excitation and emission wavelengths set to 355 and 450 nm, respectively. Data were evaluated using Excel (Microsoft) and GraphPad Prism 9 (GraphPad Software, Inc.). The data shown are representative of at least three independent experiments.

[4] = system: Parkin; test: Parkin recruitment to mitochondria and mitochondrial morphology, fluorescence microscopy; format: cell-based, human; conditions: HEK293 T-REx PINK1 cells, 3 h; 5 μM compound 5, CCCP or Antimycin A, vs DMSO
Description: (§1) Inducible stable Flp-In HEK293 T-REx cells expressing PINK1 were described previously.[33] HEK293 T-REx PINK1 and HEK293T cells were grown in DMEM (Gibco) supplemented with 10% (v/v) fetal bovine serum (ThermoFisher), 1% (v/v) GlutaMAX (Gibco), 1% (v/v) sodium pyruvate (Gibco), 125 μg/mL hygromycin (Invitrogen), and 10 μg/mL blasticidin (Gibco) or DMEM supplemented with 10% (v/v) fetal bovine serum, respectively, at 37 °C in 5% (v/v) CO2. For microscopy, cells were seeded on poly-L-lysine (Sigma)-coated slides. Transient plasmid transfections were performed using 25 kDa linear polyethylenimine (Polysciences). Plasmid (100 ng) encoding HA-Parkin-IRES-GFP, mito-mCherry or Parkin-mEGFP, or 500 ng plasmid encoding PGAM5-FLAG were used per 6-well. Total transfected DNA was 2 μg/well. For siRNA transfection, 2 × 10^5 cells were seeded per 6-well and on the next day transfected with 20 nM siRNA-oligonucleotide using lipofectamine RNAiMAX (ThermoFisher). Cells were analyzed 27 h post-transfection or five days post-siRNA-transfection. HEK293 T-REx PINK1 cells were induced with 0.3 μg/mL doxycycline for 24 h before further processing. Hoechst staining (1 μg/mL) was done immediately before adding treatment to the cells. Treatments were administered for the indicated times before processing; CCCP (Sigma) was always used as 10 μM for 3 h and Antimycin A (Sigma) as 30 μM for 3 h.
For fixation, cells were incubated for 15 min with 4% formaldehyde (16% formaldehyde diluted in PBS, Thermo Scientific) and washed in PBS. The cover glasses were mounted with Fluoromount-G (Southern Biotech) on microscope slides. […] Parkin recruitment events to the mitochondria were counted by hand throughout each z-stack and cell. […] JC-1 images were handled as summed intensity z-stack projections, as well as subjected to flatfield correction and subtraction of background before measuring the fluorescence levels normalized to the number of cell nuclei. The fluorescence intensity ratio between the red and green signal was calculated and compared to DMSO as a ratio of 1. Data were evaluated using Excel and GraphPad Prism 6.

[5] = system: Parkin; test: Parkin recruitment to mitochondria, subcellular fractionation and immunoblot; format: cell-based, human; conditions: HEK293 T-REx PINK1 cells, HA-Parkin-IRES-GFP; 5 μM compound 5, CCCP 10 μM or Antimycin A 30 μM
Description: as §1
Unless mentioned otherwise, all steps were performed at 4 °C. For subcellular fractionation to separate cellular content into cytosolic and mitochondrial fractions, cells were washed with PBS, harvested in PBS-EDTA (1 mM EDTA, 0.2 g/L D-glucose), and centrifuged at 500 × g for 5 min. […]
For immunoblot analysis in other cases, cells were either processed as described above or washed with PBS and directly lysed with Tris-glycine SDS-PAGE sample buffer and heated for 15 min at 65 °C. […] For quantification, ImageJ was used (http://rsb.info.nih.gov/ij/). […]

SMILES: CC(=O)N[C@@H](CCCNC(=N)N)C(=O)N[C@@H](CCCNC(=N)N)C(=O)N[C@@H](CCCNC(=N)N)C(=O)N[C@@H](C)C(=O)N[C@H](C(=O)N[C@@H](Cc1ccccc1)C(=O)N[C@@H](CC(C)C)C(=O)N[C@@H](C)C(=O)Nc1ccc2c(C)cc(=O)oc2c1)C(C)C [compound 4, AcRRRAVFLA-4mc] (Ac-RRRAVFLA-{AMC})
Cleavage of substrate by liposome-embedded PARL [1]: are cleaved by liposome-embedded PARL but not its catalytic mutant

IC50 [2]: 3.2 µM | IC50 [3]: 80 nM
SMILES: CC(=O)N[C@@H](CCCNC(=N)N)C(=O)N[C@@H](CCCNC(=N)N)C(=O)N[C@@H](C)C(=O)N[C@H](C(=O)N[C@@H](Cc1ccccc1)C(=O)N[C@@H](CC(C)C)C(=O)N[C@@H](C)C(=O)C(=O)NCCCCc1ccccc1)C(C)C [compound 6] (Ac-RRAVFL[X1]-{NH(4-phenylbutyl)})

SMILES: CC[C@H](C)[C@H](NC(=O)[C@H](CCCCN)NC(=O)[C@H](Cc1ccccc1)NC(=O)[C@H](CCCNC(=N)N)NC(=O)[C@H](CCCNC(=N)N)NC(C)=O)C(=O)N[C@@H](Cc1ccccc1)C(=O)C(=O)NCCCCc1ccccc1 [compound 7] (Ac-RRFKI[X2]-{NH(4-phenylbutyl)})
IC50 [3]: 1040 nM

SMILES: CCCCCC[C@H]1C(=O)O[C@H](C)[C@H](NC(=O)c2cccc(NC=O)c2O)C(=O)O[C@@H](C)[C@@H]1OC(=O)CC(C)C [Antimycin A]
Recruitment of Parkin-mEGFP to mitochondria (microscopy) [4]: not significantly different from Parkin recruitment under DMSO conditions | Parkin recruitment to the mitochondrial fraction [5]: activates the PINK1/Parkin pathway
